Data as given in article PMC9890698 (BMC Biology, 2023).
Where “and” joins values, the source holds several entries; their conditions need not be identical. Equal entries are not always repeated.

Experiments:
[1] = target: T1, Human P2Y1-R (Homo sapiens, UniProt P47900); test: Gαq protein activation BRET2 assay (Gαq-RLuc8/GFP2-Gγ2/Gβ1) in HEK293T cells expressing P2Y1-R; format: cell-based; details: Fig. S2a, P2Y1-R, individual replicates
T1 construct: expressed in transfected cells; host or cells: HEK293T/17
T1 sequence (P47900 whole entry): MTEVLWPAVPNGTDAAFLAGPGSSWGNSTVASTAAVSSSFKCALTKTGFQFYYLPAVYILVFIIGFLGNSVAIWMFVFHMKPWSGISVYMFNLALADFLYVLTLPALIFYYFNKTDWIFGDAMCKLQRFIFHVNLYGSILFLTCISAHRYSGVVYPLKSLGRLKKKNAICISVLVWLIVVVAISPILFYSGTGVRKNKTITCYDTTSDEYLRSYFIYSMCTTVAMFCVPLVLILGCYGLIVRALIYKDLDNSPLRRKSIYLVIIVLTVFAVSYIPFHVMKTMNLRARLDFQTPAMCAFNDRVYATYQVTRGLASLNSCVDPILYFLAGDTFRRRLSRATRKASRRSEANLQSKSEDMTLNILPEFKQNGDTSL
Text: (§1) As previously described, using a BRET^2 (bioluminescence resonance energy transfer)-based assay, we directly monitored the basal Gαq protein activation by measuring the interaction between Gαq and Gγ2 subunits of the Gαqβ1γ2 heterotrimer complex. Indeed, this assay is based on the non-radiative transfer between the Renilla reniformis luciferase (RLuc8) energy donor fused to the Gαq protein subunit and the fluorescent GFP2 energy acceptor fused to Gγ2 protein subunit (Fig. 1a). […] By contrast, ligand-independent constitutive receptor activation or agonist-induced receptor activation will promote Gαq/Gγ2 subunit dissociation, thereby leading to a decrease of the basal BRET signal (Fig. 1a). […] To preclude any P2Y1-R activation by a passive release of ADP by HEK293T cells, we performed similar experiments in the presence of high concentration of apyrase (0.2U/mL) to degrade any trace of ADP in the medium (Additional File 2: Fig. S2a). Under these conditions, P2Y1-R expression still induces a marked and significant decrease of the basal BRET signal compared to control cells (pcDNA3.1), thereby supporting a P2Y1-R-dependent constitutive activation of Gαq protein. […] Of note, because P2Y1-R and AT1-R were respectively Myc- and HA-tagged and were thus detected using different primary antibodies, their expression at the cell surface cannot be compared between each other’s.
(§2) Human P2Y1-R (NCBI Reference Sequence: NM_002563.2) and P2Y12-R (NCBI Reference Sequence: NM_022788.3) were fused to double Myc epitope and rat AT1-R (NCBI Reference Sequence: NM_030985.4) to HA tag in N-terminus extracellular region. Alternatively, receptors were also fused to Venus tag in C-terminus intracellular region. Plasmids encoding Gαq-RLuc8, GFP2-Gγ2 and untagged Gβ1 were previously described. ADP was purchased from Sigma-Aldrich/Merck (Darmstadt, Germany). […] The Gq inhibitor (FR900359) was kindly supplied by Evi Kostenis (University of Bonn. Germany).
G protein activation and β-arrestin 2 recruitment were performed as previously described. Briefly, vectors encoding receptors, Gαq-RLuc8, GFP2-Gγ2, Gβ1, or β-arrestin 2 were transiently cotransfected into HEK293T/17 cells as indicated in the figure legends. Forty-eight hours after transfection, cells were washed and resuspended in PBS containing 0.1% (w/v) glucose at room temperature and then distributed (80 μg proteins/well) in a 96-well microplate (PerkinElmer). For G protein activation experiments (BRET^2), cells were incubated in the absence (basal BRET signal) or in the presence of ligand for 1 minute. BRET signal between RLuc8 and GFP2 was measured after addition of the luciferase substrate coelenterazine 400a (5 μM). For β-arrestin 2 recruitment (BRET^1), cells were stimulated with ligands for 5 or 15 min. BRET signal was recorded after incubation with coelenterazine h (5 μM) for 8 min. For kinetics studies, BRET signal between RLuc and Venus was recorded at 20-s intervals at basal state for the 2 first minutes and then for 5 min after ligand injection. For saturation curves (BRET^1), the expression level of Venus- or RLuc-tagged protein was determined by direct measurement of total fluorescence and luminescence respectively. Total fluorescence was first measured with an excitation filter at 485 nm and an emission filter at 520 nm. Then, the same sample was incubated for 8 minutes with 5 μM coelenterazine h and the total luminescence was measured. BRET^2 and BRET^1 readings were collected using a modified Infinite F500 (Tecan Group Ltd). The BRET^2 signal was calculated by the ratio of emission of GFP2 (510–540 nm) to RLuc8 (370–450 nm) and the BRET^1 signal by the ratio of emission of Venus (520–570 nm) to RLuc (370–480 nm). […]

[2] = tested on: Gαq protein in HEK293T cells (pcDNA3.1); test: Gαq protein activation BRET2 assay in control HEK293T cells without receptor (pcDNA3.1 / 0 μg); format: cell-based, Human; details: Fig. S2a, pcDNA3.1, individual replicates
Text: as §1
G protein activation and β-arrestin 2 recruitment were performed as previously described. […] BRET signal between RLuc8 and GFP2 was measured after addition of the luciferase substrate coelenterazine 400a (5 μM). […] BRET signal was recorded after incubation with coelenterazine h (5 μM) for 8 min. For kinetics studies, BRET signal between RLuc and Venus was recorded at 20-s intervals at basal state for the 2 first minutes and then for 5 min after ligand injection. For saturation curves (BRET^1), the expression level of Venus- or RLuc-tagged protein was determined by direct measurement of total fluorescence and luminescence respectively. Total fluorescence was first measured with an excitation filter at 485 nm and an emission filter at 520 nm. Then, the same sample was incubated for 8 minutes with 5 μM coelenterazine h and the total luminescence was measured. BRET^2 and BRET^1 readings were collected using a modified Infinite F500 (Tecan Group Ltd). The BRET^2 signal was calculated by the ratio of emission of GFP2 (510–540 nm) to RLuc8 (370–450 nm) and the BRET^1 signal by the ratio of emission of Venus (520–570 nm) to RLuc (370–480 nm). Sometimes, results are expressed as the Net BRET computed by deducting the BRET background signal (obtained in the presence of the energy donor alone) from the BRET signal (acquired from cells expressing both the energy donor and acceptor).

[3] = target: T1, Human P2Y1-R; test: β-arrestin 2 recruitment BRET1 assay (β-arrestin 2-RLuc / P2Y1-R-Venus) in HEK293T cells; format: cell-based; details: Fig. S5; P2Y1-R; (+) apyrase; individual replicates
Text: (§3) We assessed β-arrestin 2 recruitment to the receptor using BRET^1 assay. The assay measures the interaction between β-arrestin 2 fused to the Renilla reniformis luciferase (RLuc) energy donor and the receptor fused to fluorescent Venus energy acceptor (Fig. 3a). The recruitment of cytosolic β-arrestin 2 to the receptor at the plasma membrane in the presence of an agonist will promote a significant increase of the BRET signal compared to the basal state, reflecting the close proximity between the β-arrestin 2 energy donor and the receptor energy acceptor [22].
as §2
G protein activation and β-arrestin 2 recruitment were performed as previously described. Briefly, vectors encoding receptors, Gαq-RLuc8, GFP2-Gγ2, Gβ1, or β-arrestin 2 were transiently cotransfected into HEK293T/17 cells as indicated in the figure legends. Forty-eight hours after transfection, cells were washed and resuspended in PBS containing 0.1% (w/v) glucose at room temperature and then distributed (80 μg proteins/well) in a 96-well microplate (PerkinElmer). For G protein activation experiments (BRET^2), cells were incubated in the absence (basal BRET signal) or in the presence of ligand for 1 minute. BRET signal between RLuc8 and GFP2 was measured after addition of the luciferase substrate coelenterazine 400a (5 μM). For β-arrestin 2 recruitment (BRET^1), cells were stimulated with ligands for 5 or 15 min. BRET signal was recorded after incubation with coelenterazine h (5 μM) for 8 min. For kinetics studies, BRET signal between RLuc and Venus was recorded at 20-s intervals at basal state for the 2 first minutes and then for 5 min after ligand injection. For saturation curves (BRET^1), the expression level of Venus- or RLuc-tagged protein was determined by direct measurement of total fluorescence and luminescence respectively. Total fluorescence was first measured with an excitation filter at 485 nm and an emission filter at 520 nm. Then, the same sample was incubated for 8 minutes with 5 μM coelenterazine h and the total luminescence was measured. BRET^2 and BRET^1 readings were collected using a modified Infinite F500 (Tecan Group Ltd). The BRET^2 signal was calculated by the ratio of emission of GFP2 (510–540 nm) to RLuc8 (370–450 nm) and the BRET^1 signal by the ratio of emission of Venus (520–570 nm) to RLuc (370–480 nm). Sometimes, results are expressed as the Net BRET computed by deducting the BRET background signal (obtained in the presence of the energy donor alone) from the BRET signal (acquired from cells expressing both the energy donor and acceptor).

[4] = target: T2, Human P2Y12-R (Homo sapiens, UniProt Q9H244); test: β-arrestin 2 recruitment BRET1 assay (β-arrestin 2-RLuc / P2Y12-R-Venus) in HEK293T cells; format: cell-based; details: Fig. S5; P2Y12-R; (+) apyrase; individual replicates
T2 construct: expressed in transfected cells; host or cells: HEK293T/17
T2 sequence (Q9H244 whole entry): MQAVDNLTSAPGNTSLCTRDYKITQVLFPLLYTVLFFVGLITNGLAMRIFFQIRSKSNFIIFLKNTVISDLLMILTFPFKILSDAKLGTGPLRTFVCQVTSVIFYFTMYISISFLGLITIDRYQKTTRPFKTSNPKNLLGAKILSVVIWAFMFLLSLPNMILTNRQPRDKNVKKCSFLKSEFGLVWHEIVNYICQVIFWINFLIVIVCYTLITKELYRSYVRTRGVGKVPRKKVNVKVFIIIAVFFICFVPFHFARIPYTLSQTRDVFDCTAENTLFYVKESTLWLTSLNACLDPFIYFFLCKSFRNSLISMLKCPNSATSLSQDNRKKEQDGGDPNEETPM
Text: as §3, with “[22]. […]” for “[22].”
G protein activation and β-arrestin 2 recruitment were performed as previously described. […] BRET signal between RLuc8 and GFP2 was measured after addition of the luciferase substrate coelenterazine 400a (5 μM). […] BRET signal was recorded after incubation with coelenterazine h (5 μM) for 8 min. For kinetics studies, BRET signal between RLuc and Venus was recorded at 20-s intervals at basal state for the 2 first minutes and then for 5 min after ligand injection. For saturation curves (BRET^1), the expression level of Venus- or RLuc-tagged protein was determined by direct measurement of total fluorescence and luminescence respectively. Total fluorescence was first measured with an excitation filter at 485 nm and an emission filter at 520 nm. […] BRET^2 and BRET^1 readings were collected using a modified Infinite F500 (Tecan Group Ltd). […]

[5] = tested on: HEK293T cells (pcDNA3.1); test: β-arrestin 2 BRET1 basal signal in control HEK293T cells without receptor (pcDNA3.1); format: cell-based, Human; details: Fig. S5, (+) apyrase, individual replicates
Text: Supplement 12915_2023_1528_MOESM8_ESM.xlsx, sheet "Fig. S5" | column: (+) apyrase

Substance: apyrase
- Basal BRET signal ([1]; (+) apyrase 1 min): 0.9128 and 0.7477 and 0.6192 and 0.8378
- Basal BRET signal ([1]; (+) apyrase 5 min): 0.6209 and 0.8174 and 0.9018 and 0.7551
- Basal BRET signal ([1]; (+) apyrase 10 min): 0.6295 and 0.8302 and 0.9025 and 0.7259
- Basal BRET signal ([2]; (+) apyrase 1 min): 2.035 and 1.852 and 1.218 and 1.795
- Basal BRET signal ([2]; (+) apyrase 5 min): 1.227 and 1.746 and 2.0243 and 1.801
- Basal BRET signal ([2]; (+) apyrase 10 min): 1.204 and 1.749 and 1.987 and 1.796
- Basal BRET signal [3]: 0.9766 and 1.039 and 0.9705 and 1.011
- Basal BRET signal [4]: 0.9157 and 0.9699 and 0.8998 and 0.9124
- Basal BRET signal [5]: 0.8767 and 0.9382 and 0.883 and 0.8696
